Laboratory results from publication PMC10669182, “Pyrazolo-triazolo-pyrimidine Scaffold as a Molecular Passepartout for the Pan-Recognition of Human Adenosine Receptors” (Biomolecules, 2023).
Read-outs that look alike come from different tables or passages of the source.

Columns and labels:
[1] = biological target: human A3 adenosine receptor; details: [3H]NECA, geometric mean with 95% confidence limits, read-out: hA3 (Ki nM), cited from earlier work
[2] = biological target: human A2A adenosine receptor; details: [3H]NECA, geometric mean with 95% confidence limits, read-out: hA2A (Ki nM), cited from earlier work
[3] = biological target: T1, human A2B adenosine receptor (Homo sapiens, UniProt P29275); experiment: Radioligand binding, displacement of [3H]ZM241385 at human A2B receptors expressed in CHO cells; details: 10 nM [3H]ZM241385, CHO cell membranes, 3 h room temperature; geometric mean with 95% confidence limits; reported for the first time; read-out: hA2B (Ki nM)
T1 construct: expressed in transfected cells; host or cells: CHO cells, stably transfected; membrane preparation
T1 sequence (P29275 1-332): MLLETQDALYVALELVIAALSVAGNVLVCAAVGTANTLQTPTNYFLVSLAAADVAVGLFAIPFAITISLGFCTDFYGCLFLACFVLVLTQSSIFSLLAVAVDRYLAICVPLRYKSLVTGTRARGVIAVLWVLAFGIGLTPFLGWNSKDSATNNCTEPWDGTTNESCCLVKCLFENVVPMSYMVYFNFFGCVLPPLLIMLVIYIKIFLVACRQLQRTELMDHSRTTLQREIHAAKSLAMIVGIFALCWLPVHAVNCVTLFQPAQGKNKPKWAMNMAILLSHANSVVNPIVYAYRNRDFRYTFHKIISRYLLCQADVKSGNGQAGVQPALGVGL
Protocol: All pharmacological methods followed the procedures described earlier. In brief, membranes for radioligand binding were prepared from CHO cells stably transfected with human adenosine receptor subtype (obtained as reported in reference) in a two-step procedure. In a first low-speed step (1000× g), cell fragments and nuclei were removed. The crude membrane fraction was sedimented from the supernatant at 100,000× g. The membrane pellet was resuspended in the buffer used for the respective binding experiments, frozen in liquid nitrogen, and stored at −80 °C.
Compounds were dissolved in DMSO and then diluted to the desired concentration in buffer, and at least 6 different concentrations were tested. DMSO in the final solution never exceeded 2%. For radioligand binding at A1 adenosine receptors, 1 nM [^3H]CCPA was used, whereas 30 and 10 nM [^3H]NECA were used for A2A and A3 receptors, respectively. Non-specific binding of [^3H]CCPA was determined in the presence of 1 mM theophylline; in the case of [^3H]NECA, 100 µM R-PIA was used. For radioligand binding assay of compounds 1–4 at A2B receptors, membranes (20 µg membrane protein) were incubated in a total volume of 200 µL (assay buffer: Tris/HCl pH 7.4, 10 mM MgCl2, 0.1% bovine serum albumin) with 10 nM [^3H]ZM241385. Non-specific binding of [^3H]ZM241385 was determined in the presence of 0.3 mM NECA. After 3 h at room temperature, samples were filtered and washed as described. Ki values from competition experiments were calculated with the program SCTFIT [32] and represented the mean of 3–6 replicates with 95% confidence limits.

hA2B adenosine receptor = biological target: hA2B adenosine receptor; design: method as in PMID 19501513, PMID 19908874; details: NECA (5 μM)-stimulated adenylyl cyclase, hA2B-CHO membranes; geometric mean with 95% confidence limits; cited from earlier work
[4] = biological target: human A1 adenosine receptor; details: [3H]CCPA, geometric mean with 95% confidence limits, read-out: hA1 (Ki nM), cited from earlier work
[5] = CHO cell membranes, compounds 1-7

## Cn1cc2c(nc(NC(=O)C(c3ccccc3)c3ccccc3)n3nc(-c4ccco4)nc23)n1 [Compound 1]
[1]; [5]
  Ki: 0.25 nM
[2]; [5]
  Ki: 216 nM
[3]
  Ki: 29.1 nM
hA2B adenosine receptor
  IC50: 363 nM
[4]; [5]
  Ki: 139 nM

## CCn1cc2c(nc(NC(=O)C(c3ccccc3)c3ccccc3)n3nc(-c4ccco4)nc23)n1 [Compound 2]
[1]; [5]
  Ki: 0.98 nM
[2]; [5]
  Ki: 131 nM
[3]
  Ki: 18.3 nM
hA2B adenosine receptor
  IC50: 745 nM
[4]; [5]
  Ki: 156 nM

## CCCn1cc2c(nc(NC(=O)C(c3ccccc3)c3ccccc3)n3nc(-c4ccco4)nc23)n1 [Compound 3]
[1]; [5]
  Ki: 0.93 nM
[2]; [5]
  Ki: 46.5 nM
[3]
  Ki: 13.3 nM
hA2B adenosine receptor
  IC50: 491 nM
[4]; [5]
  Ki: 80.2 nM

## CCCCn1cc2c(nc(NC(=O)C(c3ccccc3)c3ccccc3)n3nc(-c4ccco4)nc23)n1 [Compound 4]
[1]; [5]
  Ki: 1.2 nM
[2]; [5]
  Ki: 114 nM
hA2B adenosine receptor
  IC50: 780 nM
[4]; [5]
  Ki: 129 nM

## CC(C)CCn1cc2c(nc(NC(=O)C(c3ccccc3)c3ccccc3)n3nc(-c4ccco4)nc23)n1 [Compound 5]
[1]; [5]
  Ki: 5.86 nM
[2]; [5]
  Ki: 159 nM
hA2B adenosine receptor
  IC50: > 10000 nM
[4]; [5]
  Ki: 441 nM

## CCn1cc2c(nc(NC(=O)Cc3cccs3)n3nc(-c4ccco4)nc23)n1 [Compound 6]
[1]; [5]
  Ki: 196 nM
[2]; [5]
  Ki: 15.9 nM
hA2B adenosine receptor
  IC50: > 10000 nM
[4]; [5]
  Ki: 148 nM

## Cn1cc2c(nc(NC(=O)Cc3cccs3)n3nc(-c4ccco4)nc23)n1 [Compound 7]
[1]; [5]
  Ki: 5.26 nM
[2]; [5]
  Ki: 56 nM
hA2B adenosine receptor
  IC50: > 10000 nM
[4]; [5]
  Ki: 444 nM

## Cn1cc2c(nc(N)n3nc(-c4ccco4)nc23)n1 [Compound 8]
[1]; CHO cells, compounds 8-12
  Ki: 300 nM
[2]; CHO cells, compounds 8-12
  Ki: 2.8 nM
[4]; CHO cells, compounds 8-12
  Ki: 101 nM

## CCn1cc2c(nc(N)n3nc(-c4ccco4)nc23)n1 [Compound 9]
[1]; CHO cells, compounds 8-12
  Ki: 331 nM
[2]; CHO cells, compounds 8-12
  Ki: 1.95 nM
[4]; CHO cells, compounds 8-12
  Ki: 5 nM

## CCCn1cc2c(nc(N)n3nc(-c4ccco4)nc23)n1 [Compound 10]
[1]; CHO cells, compounds 8-12
  Ki: 408 nM
[2]; CHO cells, compounds 8-12
  Ki: 2.51 nM
[4]; CHO cells, compounds 8-12
  Ki: 10 nM

## CCCCn1cc2c(nc(N)n3nc(-c4ccco4)nc23)n1 [Compound 11]
[1]; CHO cells, compounds 8-12
  Ki: 600 nM
[2]; CHO cells, compounds 8-12
  Ki: 1.6 nM
[4]; CHO cells, compounds 8-12
  Ki: 14 nM

## CC(C)CCn1cc2c(nc(N)n3nc(-c4ccco4)nc23)n1 [Compound 12]
[1]; CHO cells, compounds 8-12
  Ki: 700 nM
[4]; CHO cells, compounds 8-12
  Ki: 2 nM
